From the NIST ThermoML archive (doi:10.1016/j.fluid.2018.01.025)

Experiments:
[1] = 101.33 kPa, Liquid; for speed of sound: Frequency=2 MHz, Linear variable-path acoustic interferometer; for mass density: Vibrating tube method
[2] = xn = mol fraction of the nth substance listed; settings: 101 kPa, Liquid; for speed of sound: Frequency=2 MHz, Linear variable-path acoustic interferometer; for mass density: Vibrating tube method

CN(C)c1ccccc1 [N,N-dimethylaniline]
[1]
Settings | mass density [kg/m3] | speed of sound [m/s]
303.15 K | 948.18 | 1470
308.15 K | 943.55 | –
313.15 K | 939.78 | 1432
318.15 K | 935.3 | –
323.15 K | 931.45 | –

Nc1ccccc1Cl [2-chlorobenzeneamine] + OCc1ccccc1
[2]
Settings | mass density, 303.15 K [kg/m3] | mass density, 308.15 K [kg/m3] | mass density, 313.15 K [kg/m3] | mass density, 318.15 K [kg/m3] | mass density, 323.15 K [kg/m3] | speed of sound, 303.15 K [m/s] | speed of sound, 313.15 K [m/s]
x2 = 0.1018 | 1188.36 | 1183.05 | 1178.05 | 1172.74 | 1167.93 | 1470.9 | 1440.8
x2 = 0.2031 | 1173.95 | 1168.26 | 1162.88 | 1157.37 | 1152.55 | 1474.4 | 1445.4
x2 = 0.3041 | 1158.94 | 1153 | 1147.35 | 1141.76 | 1136.87 | 1478 | 1450.2
x2 = 0.4047 | 1143.31 | 1137.27 | 1131.48 | 1125.89 | 1121.03 | 1482.1 | 1455
x2 = 0.5049 | 1126.98 | 1121.04 | 1115.21 | 1109.7 | 1104.91 | 1486.4 | 1459.9
x2 = 0.6047 | 1110.07 | 1104.31 | 1098.62 | 1093.31 | 1088.6 | 1490.9 | 1464.9
x2 = 0.7041 | 1092.58 | 1087.09 | 1081.73 | 1076.67 | 1072.12 | 1495.6 | 1470.1
x2 = 0.8031 | 1074.51 | 1069.49 | 1064.51 | 1059.84 | 1055.47 | 1500.6 | 1475.4
x2 = 0.9017 | 1056 | 1051.53 | 1047 | 1042.77 | 1038.7 | 1506 | 1481

Nc1ccccc1Cl [2-chlorobenzeneamine]
[1]
Settings | mass density [kg/m3] | speed of sound [m/s]
303.15 K | 1202.38 | 1468
308.15 K | 1197.56 | –
313.15 K | 1192.97 | 1437
318.15 K | 1187.92 | –
323.15 K | 1183.26 | –

CNc1ccccc1 [N-methylaniline]
[1]
Settings | mass density [kg/m3] | speed of sound [m/s]
303.15 K | 981.72 | 1549
308.15 K | 976.04 | –
313.15 K | 970.89 | 1511
318.15 K | 965.81 | –
323.15 K | 961.13 | –

Nc1cccc(Cl)c1 [3-chlorobenzenamine] + OCc1ccccc1
[2]
Settings | mass density, 303.15 K [kg/m3] | mass density, 308.15 K [kg/m3] | mass density, 313.15 K [kg/m3] | mass density, 318.15 K [kg/m3] | mass density, 323.15 K [kg/m3] | speed of sound, 303.15 K [m/s] | speed of sound, 313.15 K [m/s]
x2 = 0.1021 | 1189.69 | 1184.95 | 1180.24 | 1175.53 | 1170.9 | 1515.4 | 1484.3
x2 = 0.2037 | 1173.42 | 1168.65 | 1163.79 | 1159.09 | 1154.36 | 1514.9 | 1484.6
x2 = 0.3048 | 1156.94 | 1152.15 | 1147.27 | 1142.57 | 1137.82 | 1514.5 | 1484.9
x2 = 0.4055 | 1140.31 | 1135.57 | 1130.63 | 1125.95 | 1121.26 | 1514.1 | 1485.2
x2 = 0.5057 | 1123.48 | 1118.82 | 1113.94 | 1109.34 | 1104.71 | 1513.7 | 1485.5
x2 = 0.6054 | 1106.48 | 1101.95 | 1097.12 | 1092.63 | 1088.14 | 1513.3 | 1485.8
x2 = 0.7048 | 1089.33 | 1084.96 | 1080.3 | 1075.88 | 1071.54 | 1512.9 | 1486.1
x2 = 0.8036 | 1072.05 | 1067.86 | 1063.4 | 1059.13 | 1054.96 | 1512.6 | 1486.4
x2 = 0.902 | 1054.66 | 1050.79 | 1046.44 | 1042.37 | 1038.37 | 1512.3 | 1486.7

Nc1ccccc1 [aniline] + OCc1ccccc1
[2]
Settings | mass density, 303.15 K [kg/m3] | mass density, 308.15 K [kg/m3] | mass density, 313.15 K [kg/m3] | mass density, 318.15 K [kg/m3] | mass density, 323.15 K [kg/m3] | speed of sound, 303.15 K [m/s] | speed of sound, 313.15 K [m/s]
x2 = 0.0895 | 1015.86 | 1011.46 | 1007.17 | 1003.04 | 999.07 | 1605.7 | 1570.1
x2 = 0.181 | 1018.68 | 1014.15 | 1009.79 | 1005.68 | 1001.68 | 1596.1 | 1561.9
x2 = 0.2748 | 1021.37 | 1016.76 | 1012.36 | 1008.28 | 1004.27 | 1586.4 | 1553.5
x2 = 0.3709 | 1023.88 | 1019.29 | 1014.9 | 1010.83 | 1006.82 | 1576.5 | 1544.9
x2 = 0.4693 | 1026.28 | 1021.76 | 1017.36 | 1013.33 | 1009.35 | 1566.6 | 1536
x2 = 0.5701 | 1028.61 | 1024.17 | 1019.82 | 1015.83 | 1011.87 | 1556.3 | 1526.9
x2 = 0.6735 | 1030.85 | 1026.55 | 1022.24 | 1018.31 | 1014.35 | 1545.9 | 1517.5
x2 = 0.7796 | 1033.02 | 1028.88 | 1024.64 | 1020.74 | 1016.84 | 1535.2 | 1507.8
x2 = 0.8884 | 1035.14 | 1031.18 | 1027.03 | 1023.15 | 1019.33 | 1523.9 | 1497.7

Nc1cccc(Cl)c1 [3-chlorobenzenamine]
[1]
Settings | mass density [kg/m3] | speed of sound [m/s]
303.15 K | 1205.75 | 1516
308.15 K | 1201.14 | –
313.15 K | 1196.56 | 1484
318.15 K | 1191.98 | –
323.15 K | 1187.41 | –

CNc1ccccc1 [N-methylaniline] + OCc1ccccc1
[2]
Settings | mass density, 303.15 K [kg/m3] | mass density, 308.15 K [kg/m3] | mass density, 313.15 K [kg/m3] | mass density, 318.15 K [kg/m3] | mass density, 323.15 K [kg/m3] | speed of sound, 303.15 K [m/s] | speed of sound, 313.15 K [m/s]
x2 = 0.1044 | 987.67 | 980.39 | 976.87 | 971.88 | 967.24 | 1545 | 1507.9
x2 = 0.2078 | 993.53 | 986.48 | 982.82 | 977.93 | 973.34 | 1540.9 | 1505.2
x2 = 0.3102 | 999.29 | 992.49 | 988.73 | 983.96 | 979.41 | 1537.1 | 1502.6
x2 = 0.4116 | 1004.92 | 998.45 | 994.6 | 989.97 | 985.5 | 1533.3 | 1500.1
x2 = 0.512 | 1010.45 | 1004.34 | 1000.43 | 995.91 | 991.54 | 1529.6 | 1497.7
x2 = 0.6115 | 1015.9 | 1010.22 | 1006.25 | 1001.87 | 997.59 | 1526.1 | 1495.3
x2 = 0.71 | 1021.26 | 1016.06 | 1012.02 | 1007.8 | 1003.64 | 1522.5 | 1493
x2 = 0.8076 | 1026.57 | 1021.85 | 1017.82 | 1013.73 | 1009.68 | 1518.8 | 1490.8
x2 = 0.9042 | 1031.88 | 1027.64 | 1023.58 | 1019.63 | 1015.72 | 1515.3 | 1488.7

CN(C)c1ccccc1 [N,N-dimethylaniline] + OCc1ccccc1
[2]
Settings | mass density, 303.15 K [kg/m3] | mass density, 308.15 K [kg/m3] | mass density, 313.15 K [kg/m3] | mass density, 318.15 K [kg/m3] | mass density, 323.15 K [kg/m3] | speed of sound, 303.15 K [m/s] | speed of sound, 313.15 K [m/s]
x2 = 0.12 | 957.18 | 952.61 | 948.78 | 944.35 | 940.48 | 1475.2 | 1438
x2 = 0.2348 | 966.14 | 961.64 | 957.75 | 953.35 | 949.47 | 1480.2 | 1443.8
x2 = 0.3447 | 974.99 | 970.58 | 966.64 | 962.3 | 958.43 | 1484.8 | 1449.3
x2 = 0.4501 | 983.81 | 979.48 | 975.5 | 971.22 | 967.35 | 1489.2 | 1454.8
x2 = 0.5511 | 992.59 | 988.35 | 984.36 | 980.15 | 976.28 | 1493.5 | 1460.3
x2 = 0.6481 | 1001.4 | 997.24 | 993.26 | 989.1 | 985.25 | 1497.6 | 1465.7
x2 = 0.7412 | 1010.24 | 1006.19 | 1002.16 | 998.09 | 994.24 | 1501.5 | 1471.1
x2 = 0.8308 | 1019.15 | 1015.2 | 1011.16 | 1007.16 | 1003.34 | 1505.1 | 1476.4
x2 = 0.917 | 1028.12 | 1024.28 | 1020.19 | 1016.31 | 1012.49 | 1508.5 | 1481.7
